# What was measured:
# PAD4 enzyme [1] = target: T1, PAD4 enzyme (Homo sapiens (Human), UniProt Q9UM07); test: Ammonia Release Biochemical Assay (citrullination detected via ammonia release); details: PAD4 120 nM, substrate BAEE, 60-min preincubation, read-out: NH3 release
# How it was run: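 PAD4 (diluted to 120 nM) was preincubated 60 min at room temperature with compound (1% DMSO final) in HEPES pH 7.4 with DTT and BSA, then reacted 60 min with 1.5 mM BAEE in Ca2+-containing buffer. Ammonia released was detected after EDTA stop with o-phthalaldehyde/DTT (90 min, fluorescence ex 405/em 460 nm), giving IC50.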
# PAD4 enzyme [2] = target: T1, PAD4 enzyme; test: FP Binding Assay; details: for IC50: PAD4 1 uM, 10 nM fluorescein labelled probe JPAD-00085
# Procedure: Binding of compounds with PAD4 enzyme was detected by FP assay. PAD4 enzyme was diluted to 1 uM in assay buffer (100 mM HEPES, 50 mM NaCl, 1 mM DTT, 5% Glycerol and 1 mM CHAPS) and added to wells containing various concentration of compounds or DMSO vehicle (1%) in a 384 well black plate. 10 nM of fluorescein labelled probe (JPAD-00085) was added to the plate. Assay plate was incubated for 60 minutes at room temperature before measuring FP reading at FP module (λex 485/λem 535 nm) on Pherastar. IC50 was calculated using XL-fit software model 205. (Ref: Nat Chem Biol. 2015 March; 11(3):189-91).
# T1 sequence (Q9UM07 whole entry): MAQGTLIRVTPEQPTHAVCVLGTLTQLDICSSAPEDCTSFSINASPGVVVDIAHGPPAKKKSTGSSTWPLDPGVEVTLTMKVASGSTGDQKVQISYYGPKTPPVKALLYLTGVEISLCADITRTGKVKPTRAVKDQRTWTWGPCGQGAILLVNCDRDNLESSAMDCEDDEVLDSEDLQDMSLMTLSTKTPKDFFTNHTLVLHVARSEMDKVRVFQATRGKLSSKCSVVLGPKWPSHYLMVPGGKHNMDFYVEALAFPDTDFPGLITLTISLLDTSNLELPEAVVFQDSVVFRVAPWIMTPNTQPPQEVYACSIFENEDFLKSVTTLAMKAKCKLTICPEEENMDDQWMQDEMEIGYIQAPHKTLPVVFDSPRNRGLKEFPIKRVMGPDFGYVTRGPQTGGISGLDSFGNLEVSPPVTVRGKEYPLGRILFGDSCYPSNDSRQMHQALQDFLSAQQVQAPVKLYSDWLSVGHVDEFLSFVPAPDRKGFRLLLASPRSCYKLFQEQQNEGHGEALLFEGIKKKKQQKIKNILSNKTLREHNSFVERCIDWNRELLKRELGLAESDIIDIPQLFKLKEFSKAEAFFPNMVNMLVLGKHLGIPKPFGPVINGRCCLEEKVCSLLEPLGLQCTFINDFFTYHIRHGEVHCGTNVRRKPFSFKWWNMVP
IC50 (PAD4 enzyme [1]),IC50 (PAD4 enzyme [2]),inhibition of PAD4 enzyme activity in FP Binding assay (PAD4 enzyme [2]),SMILES
1 to 10 µM,1 to 10 µM,–,"CCn1c(-c2nc3cc(C(=O)N4CCC[C@@H](N)C4)cc4c3n2CCO4)cc2cccnc21 [Example 5, (R)-(3-aminopiperidin-1-yl)(2-(1-ethyl-1H-pyrrolo[2,3-b]pyridin-2-yl)-3,4-dihydro-5-oxa-1,2a-diazaacenaphthylen-7-yl)methanone]"
≤ 1 µM,≤ 1 µM,–,"N[C@@H]1CCCN(C(=O)c2cc3c4c(c2)nc(-c2cc5cc(F)ccc5n2CC2CC2)n4CCO3)C1 [Example 9, (R)-(3-aminopiperidin-1-yl)(2-(1-(cyclopropylmethyl)-5-fluoro-1H-indol-2-yl)-3,4-dihydro-5-oxa-1,2a-diazaacenaphthylen-7-yl)methanone]"
≤ 1 µM,1 to 10 µM,–,"N[C@@H]1CCCN(C(=O)c2cc3c4c(c2)nc(-c2cc5ccccc5n2Cc2ccc(Cl)cc2)n4CCO3)C1 [Example 13, (R)-(3-aminopiperidin-1-yl)(2-(1-(4-chlorobenzyl)-1H-indol-2-yl)-3,4-dihydro-5-oxa-1,2a-diazaacenaphthylene-7-yl)methanone]"
1 to 10 µM,–,actively inhibiting PAD4 enzyme activity,"N[C@@H]1CCCN(C(=O)c2cc3c4c(c2)nc(-c2cc5ccccc5n2Cc2ccccc2F)n4CCO3)C1 [Example 14, (R)-(3-aminopiperidin-1-yl)(2-(1-(2-fluorobenzyl)-1H-indol-2-yl)-3,4-dihydro-5-oxa-1,2a-diazaacenaphthylene-7-yl)methanone]"
≤ 1 µM,1 to 10 µM,–,"N[C@@H]1CCCN(C(=O)c2cc3c4c(c2)nc(-c2cc5ccccc5n2Cc2ccc(F)cc2)n4CCO3)C1 [Example 15, (R)-(3-aminopiperidin-1-yl)(2-(1-(4-fluorobenzyl)-1H-indol-2-yl)-3,4-dihydro-5-oxa-1,2a-diazaacenaphthylen-7-yl)methanone]"
≤ 1 µM,1 to 10 µM,–,"N[C@@H]1CCCN(C(=O)c2cc3c4c(c2)nc(-c2cc5ccccc5n2Cc2cccnc2)n4CCO3)C1 [Example 16, (R)-(3-aminopiperidin-1-yl)(2-(1-(pyridin-3-ylmethyl)-1H-indol-2-yl)-3,4-dihydro-5-oxa-1,2a-diazaacenaphthylen-7-yl)methanone]"
≤ 1 µM,1 to 10 µM,–,"COc1cc2cc(-c3nc4cc(C(=O)N5CCC[C@@H](N)C5)cc5c4n3CCO5)n(CC3CC3)c2cc1OC [Example 17, (R)-(3-aminopiperidin-1-yl)(2-(1-(cyclopropylmethyl)-5,6-dimethoxy-1H-indol-2-yl)-3,4-dihydro-5-oxa-1,2a-diazaacenaphthylen-7-yl)methanone]"
≤ 1 µM,1 to 10 µM,–,"N[C@@H]1CCCN(C(=O)c2cc3c4c(c2)nc(-c2cc5ccccc5n2Cc2ccccc2)n4CCO3)C1 [Example 18, (R)-(3-aminopiperidin-1-yl)(2-(1-benzyl-1H-indol-2-yl)-3,4-dihydro-5-oxa-1,2a-diazaacenaphthylen-7-yl)methanone]"
≤ 1 µM,≤ 1 µM,–,"N[C@@H]1CCCN(C(=O)c2cc3c4c(c2)nc(-c2cc5ccc(F)cc5n2CC2CC2)n4CCN3)C1 [Example 65, (R)-(3-aminopiperidin-1-yl)(2-(1-(cyclopropylmethyl)-6-fluoro-1H-indol-2-yl)-5,6-dihydro-4H-imidazo [1,5,4-de]quinoxalin-8-yl)methanone]"
≤ 1 µM,1 to 10 µM,–,"N[C@@H]1CCCN(C(=O)c2cc3c4c(c2)nc(-c2cc5ccccc5n2Cc2cccnc2)n4CCN3)C1 [Example 66, (R)-(3-aminopiperidin-1-yl)(2-(1-(pyridin-3-ylmethyl)-1H-indol-2-yl)-5,6-dihydro-4H-imidazo [1,5,4-de]quinoxalin-8-yl)methanone]"
–,–,actively inhibiting PAD4 enzyme activity,"COc1ccc2cc(-c3nc4cc(C(=O)N5CCC[C@@H](N)C5)cc5c4n3CCN5)n(CC3CC3)c2c1 [Example 73, (R)-(3-aminopiperidin-1-yl)(2-(1-(cyclopropylmethyl)-6-methoxy-1H-indol-2-yl)-5,6-dihydro-4H-imidazo[1,5,4-de]quinoxalin-8-yl)methanone]"
≤ 1 µM,1 to 10 µM,–,"CS(=O)(=O)N1CCn2c(-c3cc4ccccc4n3CC3CC3)nc3cc(C(=O)N4CCC[C@@H](N)C4)cc1c32 [Example 76, (R)-(3-aminopiperidin-1-yl)(2-(1-(cyclopropylmethyl)-1H-indol-2-yl)-6-(methylsulfonyl)-5,6-dihydro-4H-imidazo[1,5,4-de]quinoxalin-8-yl)methanone]"
–,–,actively inhibiting PAD4 enzyme activity,"N[C@@H]1CCCN(C(=O)c2cc3c4c(c2)nc(-c2cc5cc(F)c(F)cc5n2CC2CC2)n4CCN3)C1 [Example 77, (R)-(3-aminopiperidin-1-yl)(2-(1-(cyclopropylmethyl)-5,6-difluoro-1H-indol-2-yl)-5,6-dihydro-4H-imidazo[1,5,4-de]quinoxalin-8-yl)methanone]"

# From US11833156B2, “Heterocyclic compounds as pad inhibitors” (JUBILANT EPIPAD LLC, priority 2017, dated 2023)
